Patent US20160346412A1, “A KIT FOR PREPARING A RADIOPHARMACEUTICAL” (THE SOUTH AFRICAN NUCLEAR ENERGY CORPORATION LIMITED, priority 2014, published 2016)

How the values were obtained:
[1] = Stability of the ligand in water; type: physicochemical; details: free ligand versus metal-chelated ligand
Description: The production of kits of ECDG, a water labile ligand, is problematic as the normal kit procedure includes a lyophilisation step in the aqueous phase wherein the pure ligand active pharmaceutical ingredient (API) is dissolved in water/saline containing at least one each of a reducing agent, additive and buffer, distributed in vials and freeze dried. At the hospital the ^99mTc in saline is added to the kit and reconstituted. The ^99mTc is then chelated to the ECDG ligand and the ^99mTc-ECDG radiopharmaceutical is ready for injection.

[2] = aqueous medium in the published syntheses; cited from earlier work

Row | Compound | stability in water [1] | sensitivity to air, light, water and temperature [2]
1 | O=C(NC1C(O)O[C@H](CO)[C@@H](O)[C@@H]1O)C(CS)NCCN[C@@H](CS)C(=O)NC1C(O)O[C@H](CO)[C@@H](O)[C@@H]1O (stereo partly drawn) [ECDG, ethylenedicysteine deoxyglucosamine] | breaks down in water almost immediately | air, light, water and temperature sensitive
2 | O=C(NC1C(O)O[C@H](CO)[C@@H](O)[C@@H]1O)C1C[S][Tc]23(=[O])[S]C[C@@H](C(=O)NC4C(O)O[C@H](CO)[C@@H](O)[C@@H]4O)[N]2CC[N]13 (stereo partly drawn) [^99mTc-ECDG, ^99mTechnetium-ethylenedicysteine deoxyglucosamine] | stable in water | 
